Source: patent US9834558B2, “Substituted bridged urea analogs as sirtuin modulators” (GLAXOSMITHKLINE LLC, priority 2013, dated 2017)
Where two headings read alike, the source gives them in different places.

Biological target: T1, SIRT1 (Homo sapiens, UniProt Q96EB6)
T1 sequence (Q96EB6 1-747): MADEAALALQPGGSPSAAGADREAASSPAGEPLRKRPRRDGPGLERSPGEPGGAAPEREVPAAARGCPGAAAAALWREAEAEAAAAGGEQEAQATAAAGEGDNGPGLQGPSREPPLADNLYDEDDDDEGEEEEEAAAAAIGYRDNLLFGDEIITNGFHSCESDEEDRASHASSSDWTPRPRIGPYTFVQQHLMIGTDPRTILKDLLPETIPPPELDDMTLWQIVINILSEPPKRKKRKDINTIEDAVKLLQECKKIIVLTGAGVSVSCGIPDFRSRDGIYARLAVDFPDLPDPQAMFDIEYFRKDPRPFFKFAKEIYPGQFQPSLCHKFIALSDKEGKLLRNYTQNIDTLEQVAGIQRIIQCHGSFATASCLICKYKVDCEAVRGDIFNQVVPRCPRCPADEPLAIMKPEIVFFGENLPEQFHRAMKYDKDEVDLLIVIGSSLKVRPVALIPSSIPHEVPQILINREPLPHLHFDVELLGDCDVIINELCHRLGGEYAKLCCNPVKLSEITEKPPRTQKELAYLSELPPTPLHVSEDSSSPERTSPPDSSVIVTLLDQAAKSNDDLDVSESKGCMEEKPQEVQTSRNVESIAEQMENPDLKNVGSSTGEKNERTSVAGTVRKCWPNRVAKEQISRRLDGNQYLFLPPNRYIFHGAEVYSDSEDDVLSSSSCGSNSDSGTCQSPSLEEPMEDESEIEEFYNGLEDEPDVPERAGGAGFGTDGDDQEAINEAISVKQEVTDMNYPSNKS
Assay: Trp mass spectrometry assay of SIRT1 activation
Assay type: biochemical
Conditions: for TRP Activity (EC1.5): EC1.5 = concentration that results in 150% activation of SIRT1; for Emax: read-out: TRP MAX RESP (percent maximum fold activation)
Summary of the method: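 N-terminal His-tagged human SIRT1 (10 nM, E. coli BL21(DE3)) with 0.5 μM Ac-RHKK(Ac)W-NH2 peptide and 120 μM βNAD+, 25 min at 25 °C in HEPES pH 7.5, formic acid stop. OAADPR or deacetylated peptide quantified by mass spectrometry; EC1.5 (50% activity increase over control) and Percent Maximum Activation reported.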

[1] = Trp mass spectrometry assay, concentration of test compound giving 150% activation of SIRT1
[2] = concentration giving 150% activation of SIRT1, Trp peptide substrate
[3] = Trp mass spectrometry assay, EC1.5 = concentration of test compound that results in 150% activation of SIRT1
[4] = Trp peptide assay, maximum activity relative to control (100%)

Row | SMILES | Tryp AVG EC1.5 (μM) [2] | TRP Activity (EC1.5) (Trp peptide assay) | Emax [4] | further results
1 | O=C(Nc1cnccn1)N1c2nc(-c3cc(F)cc(F)c3)ccc2N2CC[C@H]1C2 [Example 397] | – | – | – | Tryp AVG EC1.5 (μM) [1]: C (C (EC1.5>25 μM))
2 | O=C(Nc1cccc(-c2cnco2)c1)N1c2nc(-c3cncc(F)c3)ccc2N2CCC1CC2 [Example 574] | – | – | – | Tryp AVG EC1.5 (μM) [3]: A (A (EC1.5<1 μM))
3 | Cc1ccc(-c2ccc3c(n2)N(C(=O)NCC(F)(F)F)[C@H]2CCN3C2)cn1 [(9S)-5-(6-methylpyridin-3-yl)-N-(2,2,2-trifluoroethyl)-1,6,8-triazatricyclo[7.2.1.0^{2,7}]dodeca-2(7),3,5-triene-8-carboxamide] | – | B (B (EC1.5 1-25 μM)) | > 150% | –
4 | O=C(NC(CO)C(F)(F)F)c1ccc2c(n1)N(C(=O)Nc1ccccn1)[C@H]1CCN2C1 (stereo partly drawn) [(9S)-8-N-(pyridin-2-yl)-5-N-(1,1,1-trifluoro-3-hydroxypropan-2-yl)-1,6,8-triazatricyclo[7.2.1.0^{2,7}]dodeca-2(7),3,5-triene-5,8-dicarboxamide] | – | A (A (EC1.5<1 μM)) | > 150% | –
5 | Cc1cc(-c2ccc3c(n2)N(C(=O)Nc2cnccn2)[C@H]2CCN3C2)cc(C)n1 [(9S)-5-(2,6-dimethylpyridin-4-yl)-N-(pyrazin-2-yl)-1,6,8-triazatricyclo[7.2.1.0^{2,7}]dodeca-2,4,6-triene-8-carboxamide] | – | A (A (EC1.5<1 μM)) | > 150% | –
6 | Cc1ccc(-c2ccc3c(n2)N(C(=O)Nc2cccc4cnccc24)[C@H]2CCN3C2)cn1 [(9S)-N-(isoquinolin-5-yl)-5-(6-methylpyridin-3-yl)-1,6,8-triazatricyclo[7.2.1.0 {2,7}]dodeca-2,4,6-triene-8-carboxamide] | – | B (B (EC1.5 1-25 μM)) | > 150% | –
7 | Cc1cc(-c2ccc3c(n2)N(C(=O)Nc2cccc4nccnc24)[C@H]2CCN3C2)ccn1 [(9S)-5-(2-methylpyridin-4-yl)-N-(quinoxalin-5-yl)-1,6,8-triazatricyclo[7.2.1.0 {2,7}]dodeca-2,4,6-triene-8-carboxamide] | – | A (A (EC1.5<1 μM)) | > 150% | –
8 | Cc1cc(-c2ccc3c(n2)N(C(=O)NC2CC2)[C@H]2CCN3C2)ccn1 [(9S)-N-cyclopropyl-5-(2-methylpyridin-4-yl)-1,6,8-triazatricyclo[7.2.1.0 {2,7}]dodeca-2,4,6-triene-8-carboxamide] | – | B (B (EC1.5 1-25 μM)) | – | Emax: > 150%
9 | CC1(CCC(=O)NCc2ccc(NC(=O)N3c4nc(-c5cccc(C(F)(F)F)c5)ccc4N4CC[C@H]3C4)cc2)N=N1 [Example 548] | – | – | – | Tryp AVG EC1.5 (μM) [3]: B (B (EC1.5 1-25 μM))
10 | N#Cc1cccc(-c2ccc3c(n2)N(C(=O)Nc2ccncn2)[C@H]2CCCN3C2)c1 [Example 352] | – | – | – | Tryp AVG EC1.5 (μM) [1]: A (A (EC1.5<1 μM))
11 | Cn1cc(-c2ccc3c(n2)N(C(=O)Nc2cnccn2)[C@H]2CCN3C2)ccc1=O [(9S)-5-(1-methyl-6-oxo-1,6-dihydropyridin-3-yl)-N-(pyrazin-2-yl)-1,6,8-triazatricyclo[7.2.1.0^2,7]dodeca-2(7),3,5-triene-8-carboxamide] | – | C (C (EC1.5>25 μM)) | < 150% | –

Further lines, with some results ahead:

Row | Tryp AVG EC1.5 (μM) [2] | TRP Activity (EC1.5) (Trp peptide assay) | Emax [4] | SMILES | further results
12 | A (A (EC1.5<1 μM)) | – | – | CC(C)(C)OC(=O)NCC#Cc1cc(NC(=O)N2c3nc(-c4cccc(C(F)(F)F)c4)ccc3N3CC[C@H]2C3)cc(-c2cnco2)c1 [Example 749] | –
13 | A (A (EC1.5<1 μM)) | – | – | O=C(Nc1cccc(CN2CCNCC2)c1)N1c2nc(-c3cccc(C(F)(F)F)c3)ccc2N2CC[C@H]1C2 [Example 731] | –
14 | A (A (EC1.5<1 μM)) | – | – | CCc1nnc(NC(=O)N2c3nc(-c4cccc(C(F)(F)F)c4)ccc3N3CC[C@H]2C3)s1 [Example 647] | –
15 | A (A (EC1.5<1 μM)) | – | – | O=C(Nc1cnccn1)N1c2nc(-c3cccc(C(F)(F)F)c3)ccc2N2C[C@@H](O)[C@H]1C2 [Example 645] | –
16 | B (B (EC1.5 1-25 μM)) | – | – | O=C(NCCCc1ccccn1)N1c2nc(-c3cccc(C(F)(F)F)c3)ccc2N2CC[C@H]1C2 [Example 673] | –
17 | A (A (EC1.5<1 μM)) | – | – | O=C(Nc1cccc(-c2cccnc2)c1)N1c2nc(-c3cccc(C(F)(F)F)c3)ccc2N2CC[C@H]1C2 [Example 660] | –
